Patent US9624161B2 (priority 2009, dated 2017)
“Also recorded” adds a separate entry of the source.

Columns and labels:
PPAR-α = target: T1, PPAR-α (Homo sapiens, UniProt Q07869); assay: Nuclear receptor cross-reactivity transcriptional activation assay; type: cell-based; conditions: agonist and antagonist modes
T1 construct: expressed in transfected cells
Source text: (§1) Compound IV was screened for cross-reactivity against rat isoforms of glucocorticoid receptor (GR), mineralocorticoids receptor (MR), progesterone receptor (PR), androgen receptor (AR) and human isoforms of farnesoid X receptor (FXR), liver X receptor (LXR), peroxisome proliferator-activated receptors (PPAR-α and PPAR-γ), and retinoid X receptor (RXR-α) in both agonist and antagonist modes in transcriptional activation assays.

[1] = target: T2, glucocorticoid receptor (GR) (Rattus norvegicus, UniProt P06536); assay: as above; type: cell-based
T2 construct: expressed in transfected cells
T2 sequence (P06536 1-795): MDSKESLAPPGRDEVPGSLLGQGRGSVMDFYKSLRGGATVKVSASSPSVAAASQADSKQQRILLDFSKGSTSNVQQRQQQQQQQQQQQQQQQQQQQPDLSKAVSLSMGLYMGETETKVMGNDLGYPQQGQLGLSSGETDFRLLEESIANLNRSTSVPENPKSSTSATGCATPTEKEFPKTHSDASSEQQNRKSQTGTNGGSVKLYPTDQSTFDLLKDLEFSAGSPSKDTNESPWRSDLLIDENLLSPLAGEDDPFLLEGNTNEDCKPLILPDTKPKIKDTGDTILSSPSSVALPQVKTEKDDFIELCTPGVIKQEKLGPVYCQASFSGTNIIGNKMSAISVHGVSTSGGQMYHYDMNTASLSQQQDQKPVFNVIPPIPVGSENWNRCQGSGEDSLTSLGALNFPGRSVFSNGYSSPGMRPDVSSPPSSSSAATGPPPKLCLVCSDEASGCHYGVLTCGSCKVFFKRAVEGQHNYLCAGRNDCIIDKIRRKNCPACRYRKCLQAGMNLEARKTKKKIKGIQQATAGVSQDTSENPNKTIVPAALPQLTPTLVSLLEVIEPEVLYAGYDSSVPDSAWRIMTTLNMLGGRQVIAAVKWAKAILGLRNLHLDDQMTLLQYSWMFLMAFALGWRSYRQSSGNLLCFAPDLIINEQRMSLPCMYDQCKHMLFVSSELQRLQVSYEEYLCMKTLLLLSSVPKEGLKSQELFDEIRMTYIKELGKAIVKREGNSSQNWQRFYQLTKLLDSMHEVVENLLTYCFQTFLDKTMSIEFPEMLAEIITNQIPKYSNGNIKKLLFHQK
Source text: as §1

[2] = target: T3, mineralocorticoids receptor (MR) (Rattus norvegicus, UniProt P22199); assay: as above; type: cell-based; conditions: agonist and antagonist modes
T3 construct: expressed in transfected cells
Source text: as §1

[3] = tested on: estrogen related receptor (ERR-α, ERR-β and ERR-γ); assay: Estrogen related receptor transactivation, DES versus Compound IV; type: cell-based; conditions: FIG. 12C
intact male rats = assay: Bone preservation despite reduction of LH and testosterone in rats (oral); type: in vivo, rat
Human 17β-HSD5 = target: T4, Human 17β-HSD5 (Homo sapiens, UniProt P42330); assay: 17β-HSD5 enzyme activity (14C androstenedione to testosterone, TLC); type: biochemical; conditions: purified protein, NADPH (FIG. 3)
T4 construct: GST (inferred from pGEX 4t1 vector; own knowledge) (N); made in house

[4] = tested on: morphine dependent rat model; assay: Morphine dependent rat model of hot flashes (tail skin temperature); type: in vivo; conditions: 5, 10, 15 and 30 mg/kg (FIG. 13)
Description: In addition to the similarities to the human condition, this experimental animal model has a short turn around time which makes it a useful high throughput screening tool for identifying compounds that can alleviate vasomotor symptoms using the tail skin temperature (TST). TST probes TA-40 (Data Sciences International, MN) were taped to the base of the tails and baseline temperatures were obtained for 15 minutes. After 15 minutes the animals were treated with naloxone (1 mg/kg, SQ) to reverse the effects of the morphine. Tail skin temperature (TST) was measured for one hour post-naloxone treatment with a sampling frequency of 5 secs throughout the course of the experiment. Following the data acquisition, the moving average of the temperature recorded every 60 seconds for each animal was calculated and further analyzed. Baseline temperature was computed as the average temperature acquired over the 15 minutes preceding naloxone administration. The area under the curve (AUC) was calculated by subtracting all the values post-naloxone administration from the baseline using a linear trapezoid method.

intact and ORX rats = assay: Prostate size in intact and ORX rats, Compound IV versus DES; type: in vivo, rat; conditions: rats (FIG. 11)
healthy human subjects = assay: Single and multiple dose studies in healthy human subjects; type: in vivo; conditions: for Subjects with decreased total testosterone levels: multiple doses
Description: There were observations of elevated ALT levels above the upper limit of normal in four subjects in the multiple dose study (3 subjects in the 1000 mg group and 1 subject in the 600 mg group). The highest single observed value of ALT was 129 IU/L or 2.6 times the upper limit of normal. Aspartate aminotransferase levels were also elevated in this subject to 1.9 times the upper limit of normal.
Serum total testosterone levels were assessed throughout the multiple doses study. Total testosterone levels were decreased in 100% (10/10) of the subjects in the 600 mg dose group and 90% (9/10) of the subjects in the […] dose group. The levels of total testosterone were decreased to below the lower limit of normal in 40% (4/10) of the subjects in the 600 mg dose group and 50% (5/10) of the subjects in the 1000 mg dose group.

[5] = Preliminary oral pharmacokinetics in monkeys; type: in vivo, monkey; conditions: preliminary pharmacokinetic studies
Description: Formulations using polyethylene glycol 300 (PEG300) generally produced higher exposures than microemulsions prepared in Tween 80 diluted in deionized water. […] Importantly, in dogs the exposure in the male 30 mg/kg PEG300 oral dose group exceeded the exposure necessary to produce the maximal effect on prostate reduction in the rat model of LH suppression.

male or female dogs = assay: Single and repeated oral dose toxicity in dogs (up to 28 days); type: in vivo, dog
Source text: Compound IV was well-tolerated by rats and dogs after single and repeated oral administration (up to 28 days).

[6] = tested on: healthy older male volunteers; assay: Study 4: proof of concept study in healthy older male volunteers (1000, 1500, 2000 mg tablets, 28 days); type: in vivo, human; conditions: each dose arm (1000, 1500, 2000 mg)
[7] = tested on: castrated male cynomolgus monkeys; assay: Compound IV studies on castrated monkeys, 90 days (Example 22); type: in vivo, cynomolgus monkey
[8] = tested on: prostate epithelial cancer cells; assay: Proliferation of prostate epithelial cancer cells in vitro; type: cell-based
rat ER-α = rat ER-α (Rattus norvegicus, UniProt P06211)
rat ER-α, sequence (P06211 whole entry): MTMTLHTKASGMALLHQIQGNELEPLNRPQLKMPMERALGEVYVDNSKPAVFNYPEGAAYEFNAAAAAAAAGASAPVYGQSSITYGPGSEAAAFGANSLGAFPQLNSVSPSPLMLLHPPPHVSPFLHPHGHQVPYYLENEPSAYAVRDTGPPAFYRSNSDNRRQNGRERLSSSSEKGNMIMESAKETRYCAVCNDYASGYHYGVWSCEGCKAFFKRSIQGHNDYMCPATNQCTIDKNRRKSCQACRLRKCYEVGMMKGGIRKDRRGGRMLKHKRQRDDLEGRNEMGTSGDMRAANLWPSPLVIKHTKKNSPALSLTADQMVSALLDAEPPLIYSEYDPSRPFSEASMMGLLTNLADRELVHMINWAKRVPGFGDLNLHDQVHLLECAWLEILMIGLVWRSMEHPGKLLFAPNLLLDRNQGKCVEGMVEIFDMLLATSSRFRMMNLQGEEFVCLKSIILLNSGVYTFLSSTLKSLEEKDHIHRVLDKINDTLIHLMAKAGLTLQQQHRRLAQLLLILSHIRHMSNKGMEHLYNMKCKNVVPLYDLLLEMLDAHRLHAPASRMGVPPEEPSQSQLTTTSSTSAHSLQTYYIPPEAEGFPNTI

T4 sequence (P42330 whole entry): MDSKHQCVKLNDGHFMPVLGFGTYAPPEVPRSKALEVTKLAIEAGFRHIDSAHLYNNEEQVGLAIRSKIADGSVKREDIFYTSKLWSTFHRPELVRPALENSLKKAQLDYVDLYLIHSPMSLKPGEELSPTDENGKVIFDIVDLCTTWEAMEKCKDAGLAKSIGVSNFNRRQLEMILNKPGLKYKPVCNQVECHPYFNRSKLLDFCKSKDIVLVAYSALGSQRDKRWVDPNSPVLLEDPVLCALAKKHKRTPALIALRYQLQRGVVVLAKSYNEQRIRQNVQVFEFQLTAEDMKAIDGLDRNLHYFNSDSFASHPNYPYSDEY
T1 sequence (Q07869 whole entry): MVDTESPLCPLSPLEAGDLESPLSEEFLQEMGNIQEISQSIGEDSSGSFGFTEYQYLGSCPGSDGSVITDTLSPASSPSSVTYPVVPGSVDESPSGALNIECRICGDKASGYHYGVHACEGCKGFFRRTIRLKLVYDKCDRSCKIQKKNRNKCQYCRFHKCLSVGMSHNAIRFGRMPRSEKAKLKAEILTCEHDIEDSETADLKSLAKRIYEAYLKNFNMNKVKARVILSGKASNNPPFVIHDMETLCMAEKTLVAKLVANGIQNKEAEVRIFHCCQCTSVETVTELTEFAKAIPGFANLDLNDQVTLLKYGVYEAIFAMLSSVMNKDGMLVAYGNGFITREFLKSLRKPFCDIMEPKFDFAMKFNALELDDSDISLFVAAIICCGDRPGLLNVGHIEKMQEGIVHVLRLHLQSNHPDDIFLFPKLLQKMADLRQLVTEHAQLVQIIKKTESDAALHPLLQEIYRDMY
T3 sequence (P22199 whole entry): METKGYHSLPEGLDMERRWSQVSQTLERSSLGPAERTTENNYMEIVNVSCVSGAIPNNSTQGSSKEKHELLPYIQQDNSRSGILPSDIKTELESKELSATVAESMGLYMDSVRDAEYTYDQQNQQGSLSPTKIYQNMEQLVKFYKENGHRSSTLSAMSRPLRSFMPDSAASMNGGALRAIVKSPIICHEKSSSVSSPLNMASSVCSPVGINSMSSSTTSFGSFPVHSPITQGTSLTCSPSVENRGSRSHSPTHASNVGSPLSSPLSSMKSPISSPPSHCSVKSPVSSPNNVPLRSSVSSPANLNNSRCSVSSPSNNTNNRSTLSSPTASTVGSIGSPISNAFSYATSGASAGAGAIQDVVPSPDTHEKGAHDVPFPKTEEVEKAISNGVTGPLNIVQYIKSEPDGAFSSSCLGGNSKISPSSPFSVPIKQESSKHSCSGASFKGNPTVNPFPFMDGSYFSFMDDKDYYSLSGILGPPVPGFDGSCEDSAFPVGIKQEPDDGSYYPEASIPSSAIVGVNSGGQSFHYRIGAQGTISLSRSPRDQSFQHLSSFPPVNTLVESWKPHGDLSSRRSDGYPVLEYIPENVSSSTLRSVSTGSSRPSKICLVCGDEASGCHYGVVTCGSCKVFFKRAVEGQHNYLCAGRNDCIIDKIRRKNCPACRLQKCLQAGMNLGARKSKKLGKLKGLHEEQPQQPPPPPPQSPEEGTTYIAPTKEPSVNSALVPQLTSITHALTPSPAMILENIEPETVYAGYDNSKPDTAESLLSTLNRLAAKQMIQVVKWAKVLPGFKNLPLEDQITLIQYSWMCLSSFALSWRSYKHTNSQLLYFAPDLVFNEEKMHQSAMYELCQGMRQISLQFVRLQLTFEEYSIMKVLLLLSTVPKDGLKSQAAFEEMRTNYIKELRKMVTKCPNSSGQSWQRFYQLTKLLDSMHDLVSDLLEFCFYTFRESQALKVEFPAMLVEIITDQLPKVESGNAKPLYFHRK

## O=C(c1ccc(O)c(F)c1)N(c1ccc(O)cc1)c1ccc(F)cc1 [Compound IV, 3-fluoro-N-(4-fluorophenyl)-4-hydroxy-N-(4-hydroxyphenyl)benzamide]
PPAR-α
  Agonist or antagonist activity at PPAR-α: did not display any agonist or antagonist activity
[1]; FIG. 12A
  Cross-reaction with glucocorticoid receptor (GR): does not; also recorded: did not
[1]; agonist and antagonist modes
  Agonist or antagonist activity at GR: did not display any agonist or antagonist activity
[2]
  Agonist or antagonist activity at MR: did not display any agonist or antagonist activity
[3]
  Effect on estrogen related receptor (ERR) transactivation: does not; also recorded: failed to crossreact
Intact male rats
  Bone loss associated with LH suppression: completely prevented the bone loss
Human 17β-HSD5
  Effect on 17β-HSD5 enzyme activity: partial inhibitory effect
[4]
  Effect on hot flashes (tail skin temperature after naloxone): attenuated hot flashes
Intact and ORX rats
  Reduction of prostate size: as effective as DES
Healthy human subjects; 600 mg dose group
  Subjects with total testosterone below the lower limit of normal: 40%
  Subjects with decreased total testosterone levels: 100%
Healthy human subjects; 997 mg dose group
  Subjects with decreased total testosterone levels: 90%
Healthy human subjects; 1000 mg dose group
  Subjects with total testosterone below the lower limit of normal: 50%
Healthy human subjects; all subjects
  Time for total testosterone to return to normal after discontinuation: ≤ 6 days
Healthy human subjects; any subject in the trial
  Elevations in total bilirubin: no observations of elevations
Healthy human subjects; healthy human subjects
  Well tolerated single doses: up to 1247 mg
Healthy human subjects; healthy human subjects, up to 10 days
  Well tolerated multiple doses: up to 997 mg
Healthy human subjects; multiple dose study
  Aspartate aminotransferase elevation in the same subject: 1.9 times the upper limit of normal
Healthy human subjects; multiple dose study, 600 mg group
  Subjects with ALT above the upper limit of normal: 1 subject
Healthy human subjects; multiple dose study, 1000 mg group
  Subjects with ALT above the upper limit of normal: 3 subjects
Healthy human subjects; multiple doses study
  Subjects with total testosterone below 1.73 nmol/L (castrate range): no subject
[5]
  Oral bioavailability: approximates or exceeds that in dogs
Male or female dogs
  Tolerability after single and repeated oral administration: well-tolerated
[6]
  SHBG increase over baseline: 300-600%
[7]; 1, 10, 100 mg/kg/day oral (groups 4, 5 and 6), within four weeks
  Serum PSA levels in castrate animals: significantly suppressed
[7]; after thirteen weeks of treatment
  Mean prostate weights at necropsy: significantly reduces
[7]; castrated animals treated with Compound IV
  Testosterone flare: not observed
[8]
  Proliferation of prostate epithelial cancer cells: does not increase proliferation; also recorded: did not increase proliferation
Rat ER-α; estradiol 1 nM, Compound IV up to 10 μM
  Antagonist effects on estradiol-stimulated transcriptional activation: no antagonist effects were observed
Rat ER-α; normalized to estradiol values
  Relative selectivity in transactivation potency for ERα over ERβ: 16 fold
